Test results reported in patent publication US20210122724A1, “TETRACARBOXYLIC DIANHYDRIDE, CARBONYL COMPOUND, POLYIMIDE PRECURSOR RESIN, AND POLYIMIDE” (ENEOS Corporation, priority 2018, published 2021).

Assay: Solubility of tetracarboxylic dianhydride in organic solvent (visual, 50 mg sample)
Type: physicochemical
Description: As the samples, the tetracarboxylic dianhydride (exo/exo type BzDA) obtained in Example 2 and the tetracarboxylic dianhydride (endo/endo type BzDA) obtained in Comparative Example 2 were separately used to confirm the solubility of each tetracarboxylic dianhydride in an organic solvent as follows. Specifically, after 50 mg of the sample was added to a screw tube, an organic solvent was added little by little into the screw tube, and the amount of the sample dissolved was visually confirmed. Note that, as the organic solvents, N,N′-dimethylacetamide and N-methyl-2-pyrrolidone were used to confirm the solubility in the solvents.

Row | Structure (SMILES) | concentration of solution that can be prepared (solubility) (solvent N,N′-dimethylacetamide) | concentration of solution that can be prepared (solubility) (solvent N-methyl-2-pyrrolidone)
1 | O=C1OC(=O)C2C3CC(CC3c3ccc(C4CC5CC4C4C(=O)OC(=O)C54)cc3)C12 (stereo not drawn) [endo/endo type BzDA] | < 1 % by mass | < 3.5 % by mass
2 | O=C1OC(=O)C2C3CC(CC3c3ccc(C4CC5CC4C4C(=O)OC(=O)C54)cc3)C12 (stereo not drawn) [exo/exo type BzDA, exo,exo-5,5′-(1,4-phenylene)bis(bicyclo[2.2.1]heptane-2,3-exo-dicarboxylic anhydride)] | ≥ 5 % by mass | ≥ 5 % by mass
